Assay results published in patent US8361968B2 (Takeda Pharmaceutical Company Limited, priority 2002, dated 2013).
Square brackets hold non-standard residues; d marks the D form. Peptide text beside a SMILES is read from it. * marks the point of attachment. Butyryl(4-indol-3-yl) = O=C(CCCc1c[nH]c2ccccc12)*; Phe(4-NH2) = Nc1ccc(C[C@H](N)C(=O)O)cc1; Arg(Me) = CNC(=N)NCCC[C@H](N)C(=O)O; d3Pal = N[C@H](Cc1cccnc1)C(=O)O; d4Pal = N[C@H](Cc1ccncc1)C(=O)O; Cha = N[C@@H](CC1CCCCC1)C(=O)O; azaGly = NNC(=O)O

Target: hOT7T175 (Homo sapiens, UniProt Q969F8, L364H)
Sequence (Q969F8 whole entry L364H): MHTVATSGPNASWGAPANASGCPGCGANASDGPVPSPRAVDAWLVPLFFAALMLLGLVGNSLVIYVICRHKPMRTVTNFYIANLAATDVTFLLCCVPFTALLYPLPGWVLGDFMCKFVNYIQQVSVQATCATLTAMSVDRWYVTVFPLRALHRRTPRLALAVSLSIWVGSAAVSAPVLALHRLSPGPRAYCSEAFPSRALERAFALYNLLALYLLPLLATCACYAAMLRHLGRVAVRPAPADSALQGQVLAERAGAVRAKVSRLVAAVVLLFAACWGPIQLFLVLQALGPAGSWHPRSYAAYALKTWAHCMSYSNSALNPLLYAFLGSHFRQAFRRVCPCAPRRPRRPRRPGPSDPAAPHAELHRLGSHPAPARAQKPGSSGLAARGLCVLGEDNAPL
Experiment: Intracellular Ca ion level-increasing activity using FLIPR in hOT7T175/CHO
Assay type: cell-based
Set-up: expressed in transfected cells; host or cells: CHO/dhfr- cells, obtained from ATCC
Conditions: relative, Metastin (1-54) = 1

Row | Molecule | Specific Activity (intracellular Ca ion level-increasing activity)
1 | CNC(=N)NCCC[C@H](NC(=O)[C@H](CC(C)C)NC(=O)NNC(=O)[C@H](Cc1ccccc1)NC(=O)[C@H](CO)NC(=O)[C@H](CC(N)=O)NC(=O)[C@H](Cc1c[nH]c2ccccc12)NC(=O)[C@H](CC(N)=O)NC(=O)[C@H](N)Cc1cccnc1)C(=O)N[C@@H](Cc1ccccc1)C(N)=O [Compound No. 258, D-Pya(3)-Asn-Trp-Asn-Ser-Phe-AzaGly-Leu-Arg(Me)-Phe-NH2] (H-[d3Pal]NWNSF[azaGly]L[Arg(Me)]F-NH2) | 2
2 | CNC(=N)NCCC[C@H](NC(=O)[C@H](CC(C)C)NC(=O)NNC(=O)[C@H](Cc1ccccc1)NC(=O)[C@H](CO)NC(=O)[C@H](CC(N)=O)NC(=O)[C@H](Cc1ccc(N)cc1)NC(=O)[C@H](CC(N)=O)NC(=O)[C@H](N)Cc1ccc(O)cc1)C(=O)N[C@@H](Cc1ccccc1)C(N)=O [Compound No. 250, D-Tyr-Asn-Phe(4NH2)-Asn-Ser-Phe-AzaGly-Leu-Arg(Me)-Phe-NH2] (H-[dY]N[Phe(4-NH2)]NSF[azaGly]L[Arg(Me)]F-NH2) | 1
3 | CNC(=N)NCCC[C@H](NC(=O)[C@H](CC(C)C)NC(=O)NNC(=O)[C@H](Cc1ccccc1)NC(=O)[C@H](CO)NC(=O)[C@H](CC(N)=O)NC(=O)[C@H](Cc1ccccc1)NC(=O)[C@H](N)Cc1cccnc1)C(=O)N[C@@H](Cc1ccccc1)C(N)=O [Compound No. 256, D-Pya(3)-Phe-Asn-Ser-Phe-AzaGly-Leu-Arg(Me)-Phe-NH2] (H-[d3Pal]FNSF[azaGly]L[Arg(Me)]F-NH2) | 1
4 | CC(C)C[C@H](NC(=O)CNC(=O)[C@H](Cc1ccccc1)NC(=O)[C@H](CO)NC(=O)[C@H](CC(N)=O)NC(=O)[C@H](Cc1c[nH]c2ccccc12)NC(=O)[C@H](CC(N)=O)NC(=O)[C@H](Cc1ccc(O)cc1)NC(=O)OCC1c2ccccc2-c2ccccc21)C(=O)N[C@@H](CCCNC(=N)N)C(=O)N[C@@H](Cc1ccccc1)C(N)=O [Compound No. 31] | 2
5 | CNC(=N)NCCC[C@H](NC(=O)[C@H](CC(C)C)NC(=O)CNC(=O)[C@H](Cc1ccccc1)NC(=O)[C@H](CO)NC(=O)[C@H](CC(N)=O)NC(=O)[C@H](Cc1c[nH]c2ccccc12)NC(=O)[C@H](N)CC(N)=O)C(=O)N[C@@H](Cc1ccccc1)C(N)=O [Compound No. 216] (H-[dN]WNSFGL[Arg(Me)]F-NH2; N-terminus assumed) | 1

More lines, now with the values ahead:

Row | Specific Activity (intracellular Ca ion level-increasing activity) | Molecule
6 | 1 | Dap-D-Tyr-Asn-Trp-Asn-Ser-Phe-Gly-Leu-Arg(Me)-Phe-NH2 [Compound No. 387]
7 | 7 | 3-Pyridylpropionyl-Asn-Ser-Phe-AzaGly-Leu-Arg(Me)-Trp-NH2 [Compound No. 386]
8 | 2 | CNC(=N)NCCC[C@H](NC(=O)[C@H](CC(C)C)NC(=O)NNC(=O)[C@H](Cc1ccccc1)NC(=O)[C@H](CO)NC(=O)[C@H](CC(N)=O)NC(=O)CCCc1c[nH]c2ccccc12)C(=O)N[C@@H](Cc1ccccc1)C(N)=O [Compound No. 267, 4-(3-Indolyl)butyryl-Asn-Ser-Phe-AzaGly-Leu-Arg(Me)-Phe-NH2] ({Butyryl(4-indol-3-yl)}-NSF[azaGly]L[Arg(Me)]F-NH2)
9 | 2 | CNC(=N)NCCC[C@H](NC(=O)[C@H](CC(C)C)NC(=O)NNC(=O)[C@H](Cc1ccccc1)NC(=O)[C@H](CO)NC(=O)[C@H](CC(N)=O)NC(=O)[C@H](CC1CCCCC1)NC(=O)[C@@H](CC(N)=O)NC(=O)[C@H](N)Cc1ccncc1)C(=O)N[C@@H](Cc1ccccc1)C(N)=O [Compound No. 306, D-Pya(4)-D-Asn-Cha-Asn-Ser-Phe-AzaGly-Leu-Arg(Me)-Phe-NH2] (H-[d4Pal][dN][Cha]NSF[azaGly]L[Arg(Me)]F-NH2)
